Measurements taken from patent publication US9475328B2, “Developer for thermally responsive record materials” (Valspar Sourcing, Inc., priority 2012, dated 2016).

Each molecule was assayed on MCF-7, clone WS8 cells (assay: MCF-7 cell proliferation assay of estrogenic activity). Conditions: logarithmic (base 10) Relative Proliferative Effect vs 17-beta estradiol; cell proliferation measured as total DNA; values 'expected or measured'.
Format: cell-based, human
Source text: The MCF-7 assay is a useful test for assessing whether a polyhydric phenol compound is appreciably non-estrogenic. The MCF-7 assay uses MCF-7, clone WS8 cells to measure whether and to what extent a substance induces cell proliferation via estrogen receptor (ER)-mediated pathways. The method is described in “Test Method Nomination: MCF-7 Cell Proliferation Assay of Estrogenic Activity” submitted for validation by CertiChem, Inc. to the National Toxicology Program Interagency Center for the Evaluation of Alternative Toxicological Methods (NICEATM) on Jan. 19, 2006 (available online at http://iccvam.niehs.nih.gov/methods/endocrine/endodocs/SubmDoc.pdf).
A brief summary of the method of the aforementioned MCF-7 assay is provided below. MCF-7, clone WS8 cells are maintained at 37° C. in RMPI (Roswell Park Memorial Institute medium) containing Phenol Red (e.g., GIBCO Catalog Number 11875119) and supplemented with the indicated additives for routine culture. […] At the end of the 7 day exposure to the test chemical, the media is removed, the wells are washed once with 0.2 ml of HBSS (Hanks' Balanced Salt Solution), and then assayed to quantify amounts of DNA per well using a micro-plate modification of the Burton diphenylamine (DPA) assay, which is used to calculate the level of cell proliferation. […]
`C[C@]12CC[C@@H]3c4ccc(O)cc4CC[C@H]3[C@@H]1CC[C@@H]2O` [17β-estradiol] was tested, and the “Log RPE” value was 2.00.
With `Oc1ccc(Cc2ccc(O)cc2)cc1` [Bisphenol F] the “Log RPE” value was −2.

The molecules below were run against T1, human estrogen receptor (Homo sapiens, UniProt P03372) (assay: suitable in vitro assay whose results correlate with the MCF-7 assay (estrogenic activity)). Conditions: in vitro assay correlated to MCF-7 assay through common reference compounds.
T1 sequence (P03372 1-595): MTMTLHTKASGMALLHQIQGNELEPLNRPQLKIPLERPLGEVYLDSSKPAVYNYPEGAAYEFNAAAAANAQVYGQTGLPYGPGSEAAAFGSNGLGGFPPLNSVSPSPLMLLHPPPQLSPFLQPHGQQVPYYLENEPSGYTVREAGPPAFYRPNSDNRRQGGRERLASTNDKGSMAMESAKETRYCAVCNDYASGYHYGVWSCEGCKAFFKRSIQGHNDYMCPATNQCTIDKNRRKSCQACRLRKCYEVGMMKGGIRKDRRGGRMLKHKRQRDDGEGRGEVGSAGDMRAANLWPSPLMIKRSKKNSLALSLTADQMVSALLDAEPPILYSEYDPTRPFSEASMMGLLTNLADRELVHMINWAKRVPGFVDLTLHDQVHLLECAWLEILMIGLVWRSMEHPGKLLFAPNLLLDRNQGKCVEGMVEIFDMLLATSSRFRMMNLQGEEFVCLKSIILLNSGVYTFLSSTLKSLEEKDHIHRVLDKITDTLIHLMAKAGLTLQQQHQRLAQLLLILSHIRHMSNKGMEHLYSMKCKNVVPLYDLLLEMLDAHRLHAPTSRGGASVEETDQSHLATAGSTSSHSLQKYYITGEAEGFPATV
Format: cell-based
With `Cc1cc(Cc2cc(C)cc(C(C)(C)C)c2O)c(O)c(C(C)(C)C)c1` [Structure 9] the estrogenic activity was “do not exhibit appreciable estrogenic activity”.
In the case of `Cc1cc(Cc2cc(C)c(O)c(C)c2)cc(C)c1O` [Structure 6, 4,4′-methylenebis(2,6-dimethylphenol)], the estrogenic activity is reported as “do not exhibit appreciable estrogenic activity”.
In the case of `CC(C)(C)c1cc(Cc2cc(C(C)(C)C)c(O)c(C(C)(C)C)c2)cc(C(C)(C)C)c1O` [Structure 8, 4,4′-methylenebis(2,6-di-t-butylphenol)], the estrogenic activity is reported as “do not exhibit appreciable estrogenic activity”.
For `CCCC(c1cc(C(C)(C)C)c(O)cc1C)c1cc(C(C)(C)C)c(O)cc1C` [Structure 7, 4,4′-butylidenebis(2-t-butyl-5-methylphenol)], the estrogenic activity was “do not exhibit appreciable estrogenic activity”.
In the case of `CC(C)(C)c1cc(O)c(C(C)(C)C)cc1O` [Structure 12, 2,5-di-t-butylhydroquinone], the estrogenic activity is reported as “do not exhibit appreciable estrogenic activity”.
